ChEMBL document CHEMBL4825732, “Discovery of the Selective Protein Kinase C-θ Kinase Inhibitor, CC-90005” (J Med Chem, 2021)

Experiments:
[1] = Apparent permeability across apical to basolateral side in human Caco2 cells; format: ADME, cell-based; conditions: Caco-2
[2] = Volume of distribution at steady state in iv dosed rat; format: ADME, organism-based; conditions: in vivo, read-out: Vdss
[3] = Oral bioavailability in rat at 10 mg/kg; format: ADME, organism-based; conditions: in vivo
[4] = Oral bioavailability in mouse at 10 mg/kg; format: ADME, organism-based; conditions: in vivo
[5] = Oral bioavailability in dog at 10 mg/kg; format: ADME, organism-based, Canis lupus familiaris; conditions: in vivo

| SMILES | Papp A→B [1] | Vd [2] | bioavailability [3] | bioavailability [4] | bioavailability [5] |
| --- | --- | --- | --- | --- | --- |
| CC1(C)[C@@H](O)C[C@H]1Nc1nc(NCc2cncnc2OCC(F)F)ncc1C#N | 11 ×10⁻⁶ cm/s |  |  |  |  |
| CC(C)(F)c1ncncc1CNc1ncc(C#N)c(N[C@@H]2C[C@H](O)C2(C)C)n1 | 36 ×10⁻⁶ cm/s |  |  |  |  |
| CC1(C)CC(Nc2cc(NCc3cnccc3C(F)(F)F)ncc2C#N)CC(C)(C)N1 |  | 27.7 L/kg |  |  |  |
| CC(F)(F)COc1ncncc1CNc1ncc(C#N)c(N[C@@H]2CC[C@H](O)C(C)(C)C2)n1 | 27 ×10⁻⁶ cm/s |  | 66% | 17% | 46% |
